Measured values reported in PMC8619593 (Pharmaceuticals, 2021).
Values after ≈ are worked out from the molar mass of the structure shown. Values joined by “and” are separate entries in the source; they are usually repeats but may differ in a detail not shown here. Identical values can stand only once. “Also recorded” adds a separate entry of the source. Like-named read-outs stand apart in the source and are kept apart here.

Experiments:
[1] = system: Bacillus subtilis ATCC 6633; test: Broth microdilution MIC; conditions: ATCC6633, 24 h
[2] = system: Staphylococcus aureus MSSA ATCC 29213; test: Broth microdilution MIC
[3] = target: T1, Human recombinant cathepsin B (exopeptidase activity) (Homo sapiens, UniProt P07858); test: Cathepsin B exopeptidase inhibition assay; format: biochemical
T1 construct: The Preparation of Catalytically Active Human Cathepsin B from Its Precursor Expressed in Escherichia coli; made in house; host or cells: Escherichia coli

SARS-CoV-2 [4] = system: SARS-CoV-2
[5] = target: Human recombinant cathepsin L (Homo sapiens, UniProt P07711); test: Cathepsin L inhibition assay; format: biochemical
Human recombinant cathepsin L, sequence (P07711 114-333): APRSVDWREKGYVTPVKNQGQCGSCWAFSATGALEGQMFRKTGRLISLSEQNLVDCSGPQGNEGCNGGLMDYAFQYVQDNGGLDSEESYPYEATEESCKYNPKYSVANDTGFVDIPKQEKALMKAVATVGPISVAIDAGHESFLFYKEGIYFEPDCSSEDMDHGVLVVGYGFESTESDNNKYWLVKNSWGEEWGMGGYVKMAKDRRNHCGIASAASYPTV

[6] = system: Staphylococcus aureus MRSA ATCC 33591; test: Broth microdilution MIC
[7] = system: Staphylococcus epidermidis mecA; test: Broth microdilution MIC; conditions: 24 h
[8] = system: Enterococcus faecalis ATCC 51299 VanB; test: Broth microdilution MIC
[9] = system: Enterococcus faecalis ATCC 29212; test: Broth microdilution MIC; conditions: ATCC29212, 24 h
[10] = system: Enterococcus faecalis 15376 VanA; test: Broth microdilution MIC; conditions: 24 h
3CLPro = 3CLPro (Severe acute respiratory syndrome coronavirus 2, UniProt P0DTD1); test: 3CLPro FRET-based inhibition assay; format: biochemical, SARS-CoV-2; conditions: for IC50: FRET, 600 nM 3CLPro, 250 nM substrate; for inhibition at 100 µM: read-out: 3CLPro inhibition
Vero E6 cells = conditions: dilutions from 100 µM
[11] = system: Staphylococcus epidermidis ATCC 35984 biofilm; test: Broth microdilution MIC
SARS-CoV-2 [12] = test: Viral RNA reduction assay (ddPCR) in Vero E6 cells, MOI 0.01; conditions: for SARS-CoV-2 RNA Reduction, activity at 50 µM: MOI 0.01, tested at 50 µM; for EC50: read-out: SARS-CoV-2 RNA Reduction EC50; for Therapeutic Index CC50/EC50: calculated from RNA reduction EC50 values
SARS-CoV-2 [13] = test: microbe, parasite or virus in culture; format: cell-based; conditions: Vero E6 cells, read-out: SARS-CoV-2 IFA, EC50
[14] = design: method as in PMID 32625627; conditions: cited from earlier work
in vitro = conditions: African green monkey
SARS-CoV-2 [15] = test: microbe, parasite or virus in culture; format: cell-based; conditions: Vero E6 cells, MOI 0.04, three days, XTT, read-out: SARS-CoV-2 CPE, EC50
SARS-CoV-2 [16] = conditions: read-out: IC50 for blocking SARS-CoV-2 entry; cited from earlier work
SARS-CoV-1 = conditions: read-out: IC50 for blocking SARS-CoV-1 entry; cited from earlier work
[17] = read-out: Exopeptidase Cathepsin B IC50; pH 5.0, substrate Abz-Gly-Ile-Val-Arg-Ala-Lys(Dnp)-OH
[18] = read-out: Cathepsin L IC50; pH 5.5, substrate Z-Phe-Arg-AMC
[19] = Enterococcus faecalis, ATCC51299, 24 h
[20] = Enterococcus faecalis, 15376VANA
[21] = Staphylococcus epidermidis, ATCC35984, 24 h
[22] = pH 5.5, substrate Z-Phe-Arg-AMC; read-out: Cathepsin L IC50
[23] = Severe acute respiratory syndrome coronavirus 2, Vero C1008, 48 h
[24] = Severe acute respiratory syndrome coronavirus 2, Vero C1008, 72 h

| Molecule | MIC [1] [µg/mL] | MIC ([2]; Staphylococcus aureus, 24 h) [µg/mL] | IC50 [3, 17] [µM] | Therapeutic Index CC50/EC50 (SARS-CoV-2 [4]) | IC50 [5, 18] [µM] | MIC ([6]; Staphylococcus aureus, 24 h) [µg/mL] | MIC ([7]; Staphylococcus epidermidis) [µg/mL] | MIC [8, 19] [µg/mL] | MIC [9] [µg/mL] | MIC [10, 20] [µg/mL] | IC50 (3CLPro) [µM] | CC50 (Vero E6 cells) [µM] | MIC [11, 21] [µg/mL] | further results |
| --- | --- | --- | --- | --- | --- | --- | --- | --- | --- | --- | --- | --- | --- | --- |
| CC(=O)NC1C(OC2c3ccc(c(Cl)c3)Oc3cc4cc(c3O)Oc3ccc(cc3Cl)CC3NC(=O)C(NC(=O)C(C)=CC=CC(C)=CC=CC=C(C)C=CC=C(C)C=CC5=C(C)CCCC5(C)C)c5ccc(O)c(c5)Oc5cc(O)cc(c5)C(NC3=O)C(=O)NC4C(=O)NC3C(=O)NC2C(=O)NC(C(=O)O)c2cc(O)cc(O)c2-c2cc3ccc2O)OC(CO)C(O)C1O (stereo not shown) [Compound 5c] | 16 (≈ 8.81 µM) | 8 (≈ 4.4 µM) | 56.5 ± 1.06 | >22.7 | 47.1 ± 1.05 | 1 (≈ 0.55 µM) | 0.5 (≈ 0.275 µM) | 8 (≈ 4.4 µM) | 4 (≈ 2.2 µM) | 8 (≈ 4.4 µM) | 34.5 ± 12.5 | > 100 | 0.5 (≈ 0.275 µM) |  |
| CC(/C=C/C=C(C)/C=C/C(=O)O)=C\C=C\C=C(C)\C=C\C=C(C)\C=C\C(=O)O (stereo in doubt) [Compound 1d, norbixin] |  |  |  |  |  |  |  |  |  |  | 36.1 ± 11.7 | > 100 |  | SARS-CoV-2 RNA Reduction, activity at 50 µM (SARS-CoV-2 [12]; Vero E6 cells): completely inactive; SARS-CoV-2 RNA Reduction, activity at 50 µM (SARS-CoV-2 [12]; Vero E6 cells, listed as 1d (norbixin)): not active at 50 µM |
| COC(=O)/C=C/C(C)=C\C=C\C(C)=C\C=C\C=C(C)\C=C\C=C(C)\C=C\C(=O)O [Compound 1a, Bixin, reference compound] | 512 (≈ 1300 µM) | 512 (≈ 1300 µM) |  |  |  | 512 (≈ 1300 µM) | 512 (≈ 1300 µM) | 512 (≈ 1300 µM) | 512 (≈ 1300 µM) | 512 (≈ 1300 µM) |  |  | 512 (≈ 1300 µM) | IC50 ([3]; pH 5.0, substrate Abz-Gly-Ile-Val-Arg-Ala-Lys(Dnp)-OH; read-out: Exopeptidase Cathepsin B IC50): 14.6 ± 1.71 µM; IC50 [5, 22]: 41.9 ± 1.12 µM; EC50 (SARS-CoV-2 [13]; Severe acute respiratory syndrome coronavirus 2, Vero C1008, 72 h, MOI 0.04, three days, dilutions from 100 µM): 28 ± 8.8 µM; acceptable daily intake [14]: 6 mg/kg body weight; EC50 (SARS-CoV-2 [12]; [23]): 5.9 ± 1.7 µM; Therapeutic Index CC50/EC50 (SARS-CoV-2 [12]): >17; CC50 (in vitro): > 100 µM; inhibition at 100 µM (3CLPro): 56%; EC50 (SARS-CoV-2 [15]; [24]): 14 ± 3.5 µM |
| teicoplanin [Compound 3, reference compound] | 0.5 |  |  |  |  |  |  |  | 2 |  |  | > 100 |  | MIC ([2]; Staphylococcus aureus MSSA ATCC 29213, 24 h): 0.5 µg/mL; Exopeptidase Cathepsin B relative inhibition ([3]; at 50 μM): 0.45% at 50 μM; Cathepsin L relative inhibition ([5]; at 50 μM): 5.07% at 50 μM; Cathepsin L relative inhibition ([5]; at 50 μM; listed as teicoplanin): 5%; MIC ([6]; Staphylococcus aureus MRSA ATCC 33591, 24 h): 0.5 µg/mL; EC50 (SARS-CoV-2 [13]; MOI 0.04, three days, dilutions from 100 µM): 18 ± 5.4 µM; MIC ([7]; Staphylococcus epidermidis mecA): 16 µg/mL; EC50 (SARS-CoV-2 [12]; Vero E6 cells, MOI 0.01, 48 h, ddPCR of supernatant): 5.6 ± 1.3 µM; MIC ([8]; Enterococcus faecalis ATCC 51299 VanB, 24 h): 4 µg/mL; MIC ([10]; Enterococcus faecalis 15376 VanA): 256 µg/mL; 3CLPro inhibition (3CLPro; at 200 μM): 13% at 200 μM; IC50 (SARS-CoV-2 [16]): 1.66 µM; MIC ([11]; Staphylococcus epidermidis ATCC 35984 biofilm, 24 h): 2 µg/mL; EC50 (SARS-CoV-2 [15]): 15.7 µM and 16 µM; IC50 (SARS-CoV-1): 3.76 µM |
| COC(=O)/C=C/C(C)=C\C=C\C(C)=C\C=C\C=C(C)\C=C\C=C(C)\C=C\C(=O)N[C@H]1C(=O)N[C@H]2C(=O)N[C@H](C(=O)N[C@H]3C(=O)N[C@H]4C(=O)N[C@H](C(=O)N[C@H](C(=O)OC)c5cc(O)cc(O)c5-c5cc4ccc5O)[C@H](O)c4ccc(cc4)Oc4cc3cc(c4O)Oc3ccc(cc3)[C@H]2O)c2cc(O)c(C)c(c2)Oc2cc1ccc2O [Compound 7] | 32 (≈ 20.6 µM) | 64 (≈ 41.3 µM) |  |  |  | 64 (≈ 41.3 µM) | 64 (≈ 41.3 µM) | 64 (≈ 41.3 µM) | 32 (≈ 20.6 µM) | 256 (≈ 165 µM) |  |  | 64 (≈ 41.3 µM) |  |
| COC(=O)/C(C)=C/C=C/C(C)=C/C=C/C=C(C)/C=C/C=C(\C)C(=O)O [Compound 1b, crocetin monomethyl ester] |  |  |  |  |  |  |  |  |  |  |  |  |  | melting point: 204 to 205 °C; SARS-CoV-2 RNA Reduction, activity at 50 µM (SARS-CoV-2 [12]; Vero E6 cells): did not show antiviral activity; also recorded: not active at 50 µM; inhibition at 100 µM (3CLPro): 24% |
| COC(=O)/C(C)=C/C=C/C(C)=C/C=C/C=C(C)/C=C/C=C(\C)C(=O)N[C@H]1C(=O)N[C@@H]2Cc3ccc(c(Cl)c3)Oc3cc4cc(c3O)Oc3ccc(cc3Cl)[C@@H](O[C@@H]3O[C@H](CO)[C@@H](O)[C@H](O)[C@H]3NC(C)=O)[C@@H]3NC(=O)[C@H](NC(=O)[C@@H]4NC(=O)[C@@H](NC2=O)c2cc(O)cc(c2)Oc2cc1ccc2O)c1ccc(O)c(c1)-c1c(O)cc(O)cc1[C@@H](C(=O)O)NC3=O [Compound 5b] | 16 (≈ 9.27 µM) | 8 (≈ 4.63 µM) | 99.5 ± 1.16 | >19.2 | 103 ± 1.12 | 2 (≈ 1.16 µM) | 2 (≈ 1.16 µM) | 8 (≈ 4.63 µM) | 4 (≈ 2.32 µM) | 8 (≈ 4.63 µM) |  | > 100 | 0.5 (≈ 0.29 µM) |  |
| CC1=C(/C=C/C(C)=C/C=C/C(C)=C/C=C/C=C(C)/C=C/C=C(\C)C(=O)O)C(C)(C)CCC1 [Compound 1c, β-apo-8′-carotenoic acid] |  |  |  |  |  |  |  |  |  |  | 73 ± 7.1 |  |  | IC50 ([3]; read-out: Exopeptidase Cathepsin B IC50): 21.3 ± 1.2 µM; IC50 [5, 22]: 76 ± 1.74 µM; EC50 (SARS-CoV-2 [13]; Severe acute respiratory syndrome coronavirus 2, Vero C1008, MOI 0.04, * measurement from 50 µM): 31 ± 7.9 µM; melting point: 194 to 195 °C; EC50 (SARS-CoV-2 [12]; [23]): 15 ± 2 µM; Therapeutic Index CC50/EC50 (SARS-CoV-2 [12]): >6.7; CC50 at 3 days (in vitro): > 100 µM; EC50 (SARS-CoV-2 [15]; [24]): 14 ± 2.2 µM |
| CC(=O)N[C@H]1[C@H](O[C@@H]2c3ccc(c(Cl)c3)Oc3cc4cc(c3O)Oc3ccc(cc3Cl)C[C@H]3NC(=O)[C@H](N)c5ccc(O)c(c5)Oc5cc(O)cc(c5)[C@H](NC3=O)C(=O)N[C@H]4C(=O)N[C@H]3C(=O)N[C@@H]2C(=O)N[C@H](C(=O)O)c2cc(O)cc(O)c2-c2cc3ccc2O)O[C@H](CO)[C@@H](O)[C@@H]1O [Compound 2, Teicoplanin pseudoaglycone] |  |  |  |  |  |  |  |  |  |  |  |  |  | inhibition at 50 µM ([3]; read-out: Exopeptidase Cathepsin B relative inhibition): 7.8%; inhibition at 50 µM ([5]; read-out: Cathepsin L relative inhibition): 0.04%; inhibition at 200 µM (3CLPro; at 200 μM): 34% |
| COC(=O)/C=C/C(C)=C\C=C\C(C)=C\C=C\C=C(C)\C=C\C=C(C)\C=C\C(=O)N[C@H]1C(=O)N[C@@H]2Cc3ccc(c(Cl)c3)Oc3cc4cc(c3O)Oc3ccc(cc3Cl)[C@@H](O[C@@H]3O[C@H](CO)[C@@H](O)[C@H](O)[C@H]3NC(C)=O)[C@@H]3NC(=O)[C@H](NC(=O)[C@@H]4NC(=O)[C@@H](NC2=O)c2cc(O)cc(c2)Oc2cc1ccc2O)c1ccc(O)c(c1)-c1c(O)cc(O)cc1[C@@H](C(=O)O)NC3=O [Compound 5a] | 32 (≈ 18 µM) | 16 (≈ 9 µM) | 47.9 ± 1.07 | >17 | 42.4 ± 1.86 | 0.5 (≈ 0.281 µM) | 16 (≈ 9 µM) | 16 (≈ 9 µM) | 16 (≈ 9 µM) | 16 (≈ 9 µM) | 13.9 ± 1.73 | > 100 | 0.5 (≈ 0.281 µM) |  |
